# Reference: patent publication US12329774B2, “Method and composition for enhancing the quality and benefits of sleep” (priority 2020, dated 2025)
# Entries after “also recorded” stand apart in the source; their conditions may differ.
# Key:
# [1] = system: GABAA-R2, GABAB-R1, GABAB-R2, 5-HT1A, GluA1, GluN1, GluN2A; assay: Western blot of GABA and other neurotransmitter receptors in caffeine-induced wakefulness mice; conditions: caffeine-induced wake mouse; result in words; listed as magnesium di-L-theanate compositions
# [2] = system: Bax, Bcl-2, Caspase-3, eNOS, iNOS; assay: Western blot of brain cell survival indicators in caffeine-induced wakefulness mice; conditions: caffeine-induced wake mouse; result in words; listed as magnesium di-L-theanate
# [3] = system: caffeine-induced wakefulness mice; assay: Caffeine-induced wakefulness mouse model: sleep latency, sleep duration, number falling asleep; format: in vivo
# Method: Animals and Experimental design: Seven male BALB/c mice per treatment arm (age: 8 weeks, weight: […]) were housed in a controlled environment with a 12:12-h light-dark cycle at 22° C. and were provided with mice chow and water ad libitum. All experiments were conducted under the National Institutes of Health's Guidelines for the Care and Use of Laboratory Animals and approved by the Ethics Committee of the Medipol University.
# Drugs and materials: Study product was provided by Nutrition21 LLC (Mg-Theanate #1=lot AA209-122-20, Mg-Theanate #2=lot BLS-DN 13). […] The concentration of each drug solution was adjusted so that the volume injected was constant at 1.0 ml/kg BW. All drug solutions were prepared fresh daily, and were administered intraperitoneally (i.p.). […]
# [4] = system: brain serotonin, dopamine and melatonin; assay: Brain neurotransmitter levels by ELISA in caffeine-induced wakefulness mice; format: in vivo; conditions: caffeine-induced wake mouse, result in words
# [5] = Observations after administration in the animal studies of Example 5 (absorption, side effects); format: in vivo, mice
# From the text: Neither component in magnesium […] compositions of the invention (i.e., magnesium or L-theanine) has been reported to cause addiction.
# Storage stability = format: physicochemical; conditions: temperature range, low relative humidity; result in words; listed as Magnesium di-L-theanate compositions
# Solubility in water = format: physicochemical
# MDA, SOD, CAT, GSHPx = assay: Brain antioxidant status in caffeine-induced wakefulness mice; format: in vivo; conditions: caffeine-induced wake mouse, result in words
# Method: Animals were anesthetized with urethane ([…], i.p., Sigma U2500). Body temperature was maintained between 36.5 and 37° C. with homeothermic blanket. Mice were stabilized under a stereotaxic frame (World Precision Instruments, Berlin; Germany) and an incision was made on the skin along the anterior/posterior line of the skull. The left […] was removed gently with a dental drill (Marothon-3; Korea). Two Ag-AgCl sphere electrodes were placed over the left hemisphere with the reference electrode attached on the pinna. […] Brains were rapidly removed, frozen on dry ice and stored at -80° C. until analyses could be performed. Biochemical and Oxidative Stress Markers-Serum melatonin, serotonin, and dopamine were measured using ELISA kits. Brain levels of malondialdehyde (MDA) were measured by HPLC. Brain activities of superoxide dismutase (SOD), catalase (CAT) and glutathione peroxidase (GSHPx) were measured using ELISA kits for each analyte.
# [6] = system: pentobarbital-induced sleep; assay: Pentobarbital-induced sleep test mouse model; format: in vivo, mice; conditions: for Duration of sleep / Sleep latency period: pentobarbital 42 mg/kg, test article 20 mg theanine/kg per os 45 min before
# Method: Subsequently, pentobarbital was administered intraperitoneally to induce a hypnotic state that promoted sleep. The effects on sleep of the test agents were monitored.
# Pentobarbital-induced sleep was performed according to published methods with slight modifications. Mice were fasted for 24 h prior to the experiment. Each test article was dissolved or suspended in physiological saline and then was administered per os. The groups were administered doses of 20 mg/kg theanine, Mg-theanate #1 (20 mg theanine/kg), and Mg-theanate #2 (20 mg theanine/kg), respectively. Forty-five minutes later, a hypnotic dose of pentobarbital (42 mg/kg) was injected into the left side of the abdomen. After injection, the mice were placed in individual cages and subjected to measurements of sleep latency and duration. Sleep latency was defined as the period between pentobarbital injection and the loss of righting reflex (sleep onset), and sleep duration denoted the time elapsed between loss of the righting reflex and recovery.
# Statistical Analyses—Data are shown as mean±SEM. Sample size was calculated based on a power of 85% and a p-value of 0.05. Given that assumption, a sample size of seven per treatment was calculated. The data were analyzed using the GLM procedure of SAS (SAS Institute: SAS User's Guide: Statistics). The treatments were compared using ANOVA and Student's unpaired t-test; P<0.05 was considered statistically significant.
# [7] = system: brain waves (spike amplitude / spike frequency); assay: Electrocorticography (ECoG) of brain electrical activity in caffeine-induced wakefulness mice; format: in vivo; conditions: caffeine-induced wake mouse, electrical activity over 120 minutes, result in words
# Method: Animals were anesthetized with urethane ([…], i.p., Sigma U2500). Body temperature was maintained between 36.5 and 37° C. with homeothermic blanket. Mice were stabilized under a stereotaxic frame (World Precision Instruments, Berlin; Germany) and an incision was made on the skin along the anterior/posterior line of the skull. The left […] was removed gently with a dental drill (Marothon-3; Korea). Two Ag—AgCl sphere electrodes were placed over the left hemisphere with the reference electrode attached on the pinna.
# Brains were rapidly removed, frozen on dry ice and stored at −80° C. until analyses could be performed.
# [8] = caffeine-induced awake mouse model, result in words
# [9] = caffeine-induced wake mouse, caffeine alone or + test article (20 mg theanine/kg)
# [10] = listed as magnesium di-L-theanate compositions
# [11] = result in words, listed as magnesium di-L-theanate composition
# [12] = result in words, listed as magnesium di-L-theanate compositions
compound,measurement,setting,value
"CCNC(=O)CCC(N)C(=O)O [Mg Theanate Composition, magnesium di-L-theanate]",GABA and other neurotransmitter receptors (receptor levels),[1],significant diminution in the caffeine-related reduction
same,"Brain cell survival (Bax, Bcl-2, Caspase-3, eNOS, and iNOS, indicators of cell damage)",[2],significant normalization
same,Time after administration at which beneficial enhancement of sleep properties was exhibited,[3]; as early as,about 30 minutes
same,Number of animals falling asleep as compared to L-theanine-treated animals,[3]; [8],significant increase
same,Sleep duration as compared to L-theanine itself,[3]; [8],significant lengthening and normalization
same,Sleep latency period as compared to L-theanine itself,[3]; [8],significant decrease
same,Number of animals falling asleep (share of the group that fell asleep),[3]; [9],+ Mg Theanate Composition: 70% of the group fell asleep
same,Sleep duration period,[3]; [9],+ Mg Theanate Composition: The sleep duration period of about 50 minutes was greatly
same,Sleep latency period,[3]; [9],"slightly more than 1 minute, a significantly shorter period than found in caffeine-treated minutes"
same,"Neurotransmitter levels (brain serotonin, dopamine, and melatonin)",[4],"animals, levels of all three neurotransmitters were more significantly restored to control"
same,"Neurotransmitter levels (brain serotonin, dopamine, and melatonin)",[4]; [10],significant restoration
same,Adverse effects on activities during or immediately after wakefulness,[5],No adverse effects were observed
same,Side effects during or after treatment,[5],No side effects were observed
same,Absorption and distribution following administration,[5]; result in words,rapidly absorbed and distributed to the brain
same,Storage stability,Storage stability,stable during storage under conditions having temperatures ranging from −80 °C to +120 °C at low relative humidity; also recorded: greatest at temperatures from −80 °C to +60 °C at low relative humidity
same,solubility,Solubility in water,~650 mg/mL
same,"Levels of protective enzymes (SOD, CAT, GSHPx)","MDA, SOD, CAT, GSHPx","protective enzymes were decreased, the adverse changes were not as great as those shown by"
same,Level of MDA (indicator of oxidative stress),"MDA, SOD, CAT, GSHPx; [10]",decrease in oxidative stress
same,"Levels of protective enzymes (SOD, CAT, GSHPx)","MDA, SOD, CAT, GSHPx; [10]",restoration of brain anti-oxidant status
same,Animals that fell asleep (10-minute period following pentobarbital administration),[6]; 20 mg theanine/kg per os,over 50%
same,Likelihood to fall asleep within the 10 minute limit as compared to theanine,"[6]; 20 mg theanine/kg per os, result in words",significantly more likely to fall asleep
same,Duration of sleep,[6]; [11],significantly increased
same,Sleep latency period,[6]; [11],significantly reduced
same,Duration of sleep,[6]; [12],significantly and more effectively increased
same,Sleep latency period,[6]; [12],significantly and more effectively decreased
same,Amplitude of brain waves,[7],increased significantly and was maintained throughout the 120 minute study period. Spike
same,Spike frequency of electrical activity in the brain,[7],frequency was significantly reduced and comparable to caffeine/theanine-treated animals.
same,Amplitude of brain waves,[7]; [10],significant increase
same,Spike frequency of electrical activity in the brain,[7]; [10],significant reduction
